Results as given in patent US20010039291A1, “Compositions and methods of treatment for cancer or viral infections” (The Procter & Gamble Company, priority 1995, published 2001).
Values after ≈ are worked out from the molar mass of the structure shown.

Experiments:
[1] = test system: HT29 colon tumor cells; experiment: MTT cell viability test, colon tumor cells; type: cell-based; details: Homo sapiens, HT-29, 120 h, about 5 day incubation, read-out: EC-50 Result
[2] = test system: Rhinovirus, type A-1; experiment: In vitro screening for Rhinovirus; type: cell-based; details: cell line WI-38
Description: The positive control was A-36683 of Abbot Company, (S,S)-1,2-bis(5-methoxy-2-benzimidazolyl)-1,2-ethanediol. […] (See Schleicher et al, Applied Microbiology, 23, No. 1, 113-116 (1972).

[3] = test system: MX1 breast cells; experiment: MTT cell viability test, breast tumor cells; type: cell-based; details: Homo sapiens, 120 h, about 5 day incubation, read-out: EC-50 Result
[4] = test system: A549 lung tumor cells; experiment: MTT cell viability test, lung tumor cells; type: cell-based; details: Homo sapiens, 120 h, about 5 day incubation, read-out: EC-50 Result
[5] = test system: human tumor colony forming units; experiment: In vitro human tumor colony forming units test; type: cell-based; details: for effectiveness against tumor types / tumors with ≦50% survival: continuous exposure
Method: Solid tumors removed by patients are minced into 2 to 5 mm fragments and immediately placed in McCoy's Medium 5A plus 10% heat inactivated newborn calf serum plus 1% penicillin/streptomycin. Within 4 hours, these solid tumors are mechanically disassociated with scissors, forced through No. 100 stainless steel mesh, through 25 gauge needles, and then washed with McCoy's medium as described above. Ascitic, pleural, pericardial fluids and bone marrow are obtained by standard techniques. The fluid or marrow is placed in sterile containers containing 10 units of preservative free heparin per ml. of malignant fluid or marrow. After centrifugation at 150×g for 10 minutes, the cells are harvested and washed with McCoy's medium plus 10% heat inactivated calf serum. The viability of cell suspensions is determined on a hemocytometer with trypan blue.
Cells to be cloned are suspended in 0.3% agar in enriched CMRL1066 supplemented with 15% heat inactivated horse serum, penicillin (100 units/ml), streptomycin (2 mg/ml), glutamine (2 mM), insulin (3 units/ml), asparagine (0.6 mg/ml), and HEPES buffer (2 mM). For the continuous exposure test each compound is added to the above mixture. Cells are placed in 35 mm petri dishes in a top layer of agar over an underlayer of agar to prevent growth of fibroblasts. Three plates are prepared for each data point. The plates are placed in a 37° C. incubator, and are removed on day 14 for counting of the number of colonies in each plate. The number of colonies (defined as 50 cells) formed in the 3 compound treated plates is compared to the number of colonies formed in the 3 control plates, and the percent colonies surviving at the concentration of compound can be estimated. Three positive control plates are used to determine survival rate. Orthosodium vanadate at 200 μg/ml is used as the positive control. If there is <30% colonies in the positive control when compared to the untreated control, the test is evaluated.

[6] = test system: Human influenza virus, strain AT2/Taiwan/1/64; experiment: Anti-viral evaluation with human influenza virus in mice; type: in vivo; details: oral lavage, observed 21 days after challenge

Row | SMILES | EC50 [1] [µg/mL] | effective concentration [2] [µg/mL] | therapeutic index (ratio of the toxic dose to the efficacious dose) [2] | EC50 [3] [µg/mL] | EC50 [4] [µg/mL] | effectiveness against tumors ([5]; 0.5 μg/ml, continuous exposure test) | tumors responding (effective/tested) ([5]; 0.5 μg/ml, single dose experiment) | effectiveness against tumor types ([5]; 5.0 μg/ml) | tumors with ≦50% survival ([5]; 5.0 μg/ml) | effectiveness against tumor types ([5]; 50.0 μg/ml) | tumors with ≦50% survival ([5]; 50.0 μg/ml) | mice survived ([6]; 175 mg/kg dose, saline control no mice survived) [%] | mice survived ([6]; 350 mg/kg dose) [%]
1 | CCCC1COC(Cn2cncn2)(c2ccc(Cl)cc2Cl)O1 (centres unmarked) [Propiconazole, 1-[2-(2,4-dichlorophenyl)4-propyl-1,3-dioxolan-2-ylmethyl]-1H-1,2,4-triazole] | 0.0331 (≈ 0.0967 µM) | 32 | 1-3 | 0.0284 (≈ 0.083 µM) | 0.113 (≈ 0.33 µM) | not effective | 0/1 | effective against breast, head and neck, melanoma and ovarian cancers | 5 of 26 | effective against breast, colon, head and neck, lung (non-small cell), melanoma, ovarian, stomach, and uterine cancers | 18 of 25 | 40 | 57
2 | COc1ccc2nc([C@H](O)[C@@H](O)c3nc4ccc(OC)cc4[nH]3)[nH]c2c1 [A-36683, (S,S)-1,2-bis(5-methoxy-2-benzimidazolyl)-1,2-ethanediol, reference compound] | – | – | 1000-3200 | – | – | – | – | – | – | – | – | – | –
3 | COc1cccc2c1C(=O)c1c(O)c3c(c(O)c1C2=O)C[C@@](O)(C(=O)CO)C[C@@H]3O[C@H]1C[C@H](N)[C@H](O)[C@H](C)O1 [Adriamycin, reference compound] | 0.00639 (≈ 0.0118 µM) | – | – | 0.00078 (≈ 0.00144 µM) | 0.00373 (≈ 0.00686 µM) | – | – | – | – | – | – | – | –
